Assays:
TLR9 [1] = target: T1, TLR9 (Homo sapiens, UniProt Q9NR96); conditions: Bhattacharjee et al. 2006; Macfarlane et al. 1998; cited from earlier work
T1 sequence (Q9NR96 26-1032): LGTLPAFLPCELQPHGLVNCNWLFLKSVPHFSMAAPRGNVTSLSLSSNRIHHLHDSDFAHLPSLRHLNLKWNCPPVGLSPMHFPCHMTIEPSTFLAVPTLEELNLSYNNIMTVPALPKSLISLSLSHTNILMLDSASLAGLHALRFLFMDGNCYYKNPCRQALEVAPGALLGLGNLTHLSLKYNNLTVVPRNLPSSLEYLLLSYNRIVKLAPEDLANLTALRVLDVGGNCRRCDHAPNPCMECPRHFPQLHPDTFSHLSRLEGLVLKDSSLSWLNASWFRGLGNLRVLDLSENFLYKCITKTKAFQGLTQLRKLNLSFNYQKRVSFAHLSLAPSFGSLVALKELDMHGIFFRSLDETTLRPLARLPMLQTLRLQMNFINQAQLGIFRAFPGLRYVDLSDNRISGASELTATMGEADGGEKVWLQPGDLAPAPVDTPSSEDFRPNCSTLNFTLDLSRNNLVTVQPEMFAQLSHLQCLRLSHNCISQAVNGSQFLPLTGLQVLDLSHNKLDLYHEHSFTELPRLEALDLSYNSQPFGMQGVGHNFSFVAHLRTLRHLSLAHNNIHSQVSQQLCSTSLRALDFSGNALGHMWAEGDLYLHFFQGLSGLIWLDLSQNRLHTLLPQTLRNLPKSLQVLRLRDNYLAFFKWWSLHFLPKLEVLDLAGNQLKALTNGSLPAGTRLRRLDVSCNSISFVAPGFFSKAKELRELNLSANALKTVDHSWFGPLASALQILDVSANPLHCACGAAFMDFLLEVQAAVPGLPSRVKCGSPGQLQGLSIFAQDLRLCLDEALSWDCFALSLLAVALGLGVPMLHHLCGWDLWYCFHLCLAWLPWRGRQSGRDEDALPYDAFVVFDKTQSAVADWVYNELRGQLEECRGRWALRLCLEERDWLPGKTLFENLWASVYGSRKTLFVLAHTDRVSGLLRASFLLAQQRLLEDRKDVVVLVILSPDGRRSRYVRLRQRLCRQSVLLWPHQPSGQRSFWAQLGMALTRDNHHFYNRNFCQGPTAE

U937 cells = conditions: H. Mitsuzawa et al. 2006; cited from earlier work
NF-κB = conditions: LPS-elicited; H. Mitsuzawa et al. 2006; cited from earlier work
[2] = tested on: U937, a macrophage cell line; assay: TLR ligand-induced CXCL8 (IL-8) release, U937 cell line; type: cell-based, human; conditions: FIG. 7
Text: (§1) Three human cell lines representative of immune responsive cells of the ocular surface (HCEL, a human corneal epithelial cell line representative of cells present on the ocular surface; HL-60, a neutrophil-like cell line representative of neutrophils present in the tear layer, especially in the closed eye; and U937, a macrophage cell line representative of dendritic cells of the cornea, especially of those at the limbus) were exposed to various concentrations of compositions of the present invention containing the inhibitory ODN TTAGGG (InvivoGen, San Diego, Calif.) and vitamin D (1α,25-Dihydroxyvitamin D3, Sigma-Aldrich, St. Louis, Mo.) and control compositions containing prednisolone (1,4-Pregnadiene-11β,17α,21-triol-3,20-dione, Sigma-Aldrich, St. Louis, Mo.) for 1 hour prior to activation by the TLR ligand Pam3Cys for 6 hour, flagellin (flagellin purified from Salmonella typhimurium, InvivoGen, San Diego, Calif.) for 24 hr, or the stimulatory CpG type B ODN 2006 (Invivogen, San Diego, Calif.) for 24 hours. After incubation at 37° C., supernates were collected for ELISA assay (R&D Systems, Minneapolis, Minn.) for the pro-inflammatory cytokine CXCL8 (“IL-8”). Both the inhibitory ODN TTAGGG and vitamin D inhibited cytokine response to TLR ligand activation of each cell line in an inhibitor-specific manner. […] Inhibition of the stimulatory ODN CpGB ODN 2006 was only tested with inhibitory ODN TTAGGG on U937 cells.

[3] = tested on: HCEL, a human corneal epithelial cell line; assay: TLR ligand-induced CXCL8 (IL-8) release, HCEL cell line; type: cell-based; conditions: inhibitor 1 hour before, FIG. 7
Text: as §1

TLR9 [4] = target: T1, TLR9; conditions: Gursel et al. 2003; Stunz et al. 2002; cited from earlier work
[5] = tested on: HL-60, a neutrophil-like cell line; assay: TLR ligand-induced CXCL8 (IL-8) release, HL-60 cell line; type: cell-based, human; conditions: inhibitor 1 hour before, FIG. 7
Text: as §1

TLR4 = conditions: monocytes; K. Sadeghi et al. 2006; cited from earlier work
TLR2 = conditions: monocytes; K. Sadeghi et al. 2006; cited from earlier work
[6] = flagellin activation 24 hr, inhibitor 1 hour before

## Nc1c2ccccc2nc2ccccc12 [9-aminoacridine]
TLR9 [1]
  immunostimulatory action of CpG ODN: block the immunostimulatory action of CpG ODN

## sTLR4: soluble form of a CD14-binding extracellular domain of TLR4
U937 cells
  LPS-elicited IL-8 release: effective in inhibiting
NF-κB
  NF-κB activation: effective in inhibiting

## CCN(CC)CCCC(C)Nc1ccnc2cc(Cl)ccc12 (stereo not drawn) [chloroquine]
TLR9 [1]
  immunostimulatory action of CpG ODN: block the immunostimulatory action of CpG ODN

## CCN(CCO)CCCC(C)Nc1ccnc2cc(Cl)ccc12 (stereo not drawn) [hydroxychloroquine]
TLR9 [1]
  immunostimulatory action of CpG ODN: block the immunostimulatory action of CpG ODN

## TTAGGG (listed as Homo sapiens) [ODN TTTAGGG]
[2]; Pam3Cys activation 6 hour, inhibitor 1 hour before
  CXCL8 (IL-8) cytokine response: reduced the cytokine response
[2]; stimulatory CpG type B ODN 2006 activation 24 hours
  CXCL8 (IL-8) cytokine response: reduced the cytokine response
[3]; Pam3Cys activation 6 hour
  CXCL8 (IL-8) cytokine response: reduced the cytokine response
TLR9 [4]
  colocalization of CpG DNA with TLR9 within endosomal vesicles: block the colocalization
[5]; Pam3Cys activation 6 hour
  CXCL8 (IL-8) cytokine response: reduced the cytokine response

## CCN(CC)CCCC(C)Nc1c2ccc(Cl)cc2nc2ccc(OC)cc12 (stereo not drawn) [quinacrine]
TLR9 [1]
  immunostimulatory action of CpG ODN: block the immunostimulatory action of CpG ODN

## C[C@]12C=CC(=O)C=C1CC[C@@H]1[C@@H]2[C@@H](O)C[C@@]2(C)[C@H]1CC[C@]2(O)C(=O)CO [Prednisolone, 1,4-Pregnadiene-11β,17α,21-triol-3,20-dione]
[2]; [6]
  CXCL8 (IL-8) cytokine response: inhibited
[3]; Pam3Cys activation 6 hour
  CXCL8 (IL-8) cytokine response: inhibited
[3]; flagellin activation 24 hr
  CXCL8 (IL-8) cytokine response: inhibited
[5]; Pam3Cys activation 6 hour
  CXCL8 (IL-8) cytokine response: inhibited
[5]; flagellin activation 24 hr
  CXCL8 (IL-8) cytokine response: inhibited

## Nc1ccnc2ccccc12 [4-aminoquinoline]
TLR9 [1]
  immunostimulatory action of CpG ODN: block the immunostimulatory action of CpG ODN

## C=C1/C(=C\C=C2/CCC[C@]3(C)[C@@H]([C@H](C)CCCC(C)(C)O)CC[C@@H]23)C[C@@H](O)C[C@@H]1O [Vitamin D, 1α,25-Dihydroxyvitamin D3]
TLR4
  expression of TLR4: diminishes the expression
[2]; [6]
  CXCL8 (IL-8) cytokine response: reduced the cytokine response
[3]; Pam3Cys activation 6 hour
  CXCL8 (IL-8) cytokine response: reduced the cytokine response
TLR2
  expression of TLR2: diminishes the expression
[5]; flagellin activation 24 hr
  CXCL8 (IL-8) cytokine response: reduced the cytokine response

B1: sMD-2: soluble form of MD-2 (protein, UniProt Q9Y6Y9 19-160, looked up)
Lymphocyte antigen 96: QKQYWVCNSSDASISYTYCDKMQYPISINVNPCIELKRSKGLLHIFYIPRRDLKQLYFNLYITVNTMNLPKRKEVICRGSDDDYSFCRALKGETVNTTISFSFKGIKFSKGKYKCVVEAISGSPEEMLFCLEFVILHQPNSN
U937 cells
  LPS-elicited IL-8 release: effective in inhibiting
NF-κB
  NF-κB activation: effective in inhibiting

From patent US20090081194A1, “COMPOSITIONS AND METHODS FOR REDUCING RISK OF DEVELOPMENT, OR SEVERITY, OF INAPPROPRIATE IMMUNE RESPONSE IN EYES” (priority 2007, published 2009)
